The record followed here is US20260327214A1, “1,3,4-OXADIAZOLE DERIVATIVE COMPOUNDS AS HISTONE DEACETYLASE 6 INHIBITOR, AND USES THEREOF” (CHONG KUN DANG PHARMACEUTICAL CORP., priority 2022, published 2026).

One may read the IC50 as the concentration that inhibits the measured activity by half.

Experiment [1] addresses T1, human recombinant HDAC1 (Homo sapiens, UniProt Q13547).
T1 construct: purchased Enzo Life Science BML-SE456
Briefly: HDAC1 enzyme activity inhibition test (HDAC Fluorometric Drug Discovery Kit). In kind it is biochemical. As to conditions: 30° C., 60 minutes, 10 μM substrate. How it is done:
(§1) The following experiment was conducted to confirm the HDAC6 selectivity of the compound represented by Chemical Formula I of the present invention through the HDAC1 and HDAC6 enzyme activity inhibition test.
(§2) HDAC enzyme activity was measured using HDAC Fluorometric Drug Discovery Kit (BML-AK511, 516) manufactured by Enzo Life Science. For the HDAC1 enzyme activity test, human recombinant HDAC1 (BML-SE456) was used as an enzyme source and Fluor de Lys-®-″SIRT1 (BNL-KI177) was used as a substrate. The 5-fold diluted compound was dispensed in a 96-well plate, 0.3 μg of enzyme and 10 μM substrate were added to each well and reacted at 30° C. for 60 minutes, and Fluor de Lys® Developer II(BML-KI176) was added and reacted for 30 minutes to complete the reaction. Then, the fluorescence value (Ex 360, Em 460) was measured using a multiplate reader (Flexstation 3, Molecular Device). The HDAC6 enzyme was tested using the same protocol as the HDAC1 enzyme activity test method employing human recombinant HDAC6 (382180) from Calbiochem. For the final result, each […] value was calculated using the GraphPad Prism 4.0 program.

The target of experiment [2] is T2, human recombinant HDAC6 (Homo sapiens, UniProt Q9UBN7).
T2 construct: purchased Calbiochem 382180
T2 sequence (Q9UBN7 1-1215): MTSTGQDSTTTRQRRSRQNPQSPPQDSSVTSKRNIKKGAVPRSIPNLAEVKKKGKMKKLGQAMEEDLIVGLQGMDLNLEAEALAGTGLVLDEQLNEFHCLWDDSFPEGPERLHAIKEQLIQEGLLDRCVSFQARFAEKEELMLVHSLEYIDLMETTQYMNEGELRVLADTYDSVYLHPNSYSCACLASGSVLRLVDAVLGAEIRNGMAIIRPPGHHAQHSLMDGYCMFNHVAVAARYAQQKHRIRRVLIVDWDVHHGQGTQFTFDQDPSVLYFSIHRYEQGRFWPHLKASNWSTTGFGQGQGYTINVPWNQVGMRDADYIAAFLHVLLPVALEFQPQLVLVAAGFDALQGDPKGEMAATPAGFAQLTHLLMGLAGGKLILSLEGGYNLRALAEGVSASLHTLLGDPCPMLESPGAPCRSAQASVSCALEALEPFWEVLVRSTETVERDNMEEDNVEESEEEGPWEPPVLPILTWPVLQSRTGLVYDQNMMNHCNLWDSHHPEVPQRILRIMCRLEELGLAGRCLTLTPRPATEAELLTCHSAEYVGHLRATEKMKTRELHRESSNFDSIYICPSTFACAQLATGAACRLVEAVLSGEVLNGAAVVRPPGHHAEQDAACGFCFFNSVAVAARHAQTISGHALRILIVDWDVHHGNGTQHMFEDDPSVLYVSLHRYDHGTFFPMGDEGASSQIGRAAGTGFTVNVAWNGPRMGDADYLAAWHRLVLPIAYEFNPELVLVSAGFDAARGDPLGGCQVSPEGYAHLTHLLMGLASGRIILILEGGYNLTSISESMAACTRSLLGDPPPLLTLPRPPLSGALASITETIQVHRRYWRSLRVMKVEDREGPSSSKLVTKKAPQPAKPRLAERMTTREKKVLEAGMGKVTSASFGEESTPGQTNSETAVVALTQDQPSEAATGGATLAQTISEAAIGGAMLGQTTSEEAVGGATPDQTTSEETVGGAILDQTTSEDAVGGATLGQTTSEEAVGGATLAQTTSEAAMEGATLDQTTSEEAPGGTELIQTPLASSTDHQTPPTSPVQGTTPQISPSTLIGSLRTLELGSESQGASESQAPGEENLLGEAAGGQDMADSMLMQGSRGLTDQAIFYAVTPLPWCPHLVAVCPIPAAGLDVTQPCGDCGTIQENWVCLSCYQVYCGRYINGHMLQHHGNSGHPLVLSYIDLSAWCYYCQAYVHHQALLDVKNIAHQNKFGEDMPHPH
The experiment is described as follows: HDAC6 enzyme activity inhibition test (HDAC Fluorometric Drug Discovery Kit). It is filed as biochemical. As to conditions: for HDAC6 selectivity (fold): HDAC6 over HDAC1; for IC50: human recombinant HDAC6, same protocol as HDAC1. How it is done:
as §1, §2

T1 sequence (Q13547 whole entry): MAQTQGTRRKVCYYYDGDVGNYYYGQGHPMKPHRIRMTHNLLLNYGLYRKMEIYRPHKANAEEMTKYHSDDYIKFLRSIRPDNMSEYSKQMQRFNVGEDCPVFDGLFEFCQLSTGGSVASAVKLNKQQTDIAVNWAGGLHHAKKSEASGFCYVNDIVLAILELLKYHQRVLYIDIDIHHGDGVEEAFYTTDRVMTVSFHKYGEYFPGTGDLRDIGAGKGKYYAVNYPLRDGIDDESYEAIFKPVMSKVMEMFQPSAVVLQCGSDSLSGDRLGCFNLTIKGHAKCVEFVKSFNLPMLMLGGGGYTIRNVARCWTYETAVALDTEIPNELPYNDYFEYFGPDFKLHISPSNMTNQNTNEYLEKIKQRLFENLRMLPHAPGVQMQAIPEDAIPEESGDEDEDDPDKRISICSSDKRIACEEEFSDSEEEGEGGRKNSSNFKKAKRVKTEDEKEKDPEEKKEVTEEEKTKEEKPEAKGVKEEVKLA

Take `CC1CC(N2CCC(c3cccc(-c4nn(Cc5ccc(-c6nnc(C(F)F)o6)cn5)c(=O)o4)c3)CC2)C1` (stereo not drawn) [Compound 10, 3-[[5-[5-(difluoromethyl)-1,3,4-oxadiazol-2-yl]-2-pyridyl]methyl]-5-[3-[1-(3-methylcyclobutyl)-4-piperidyl]phenyl]-1,3,4-oxadiazol-2-one]: the results for the IC50 in experiment [1] and in experiment [2] were more than 50000 nM and 75.1 nM, respectively. In addition, the “HDAC6 selectivity (fold)” value in experiment [2] turned out to be 666 fold.
In the case of `CN1CCc2ccc(-c3nn(Cc4ccc(-c5nnc(C(F)F)o5)cn4)c(=O)o3)cc2C1` [Compound 12, 3-[[5-[5-(difluoromethyl)-1,3,4-oxadiazol-2-yl]-2-pyridyl]methyl]-5-(2-methyl-3,4-dihydro-1H-isoquinolin-7-yl)-1,3,4-oxadiazol-2-one], the IC50 in experiment [1] was more than 50000 nM. In addition, in experiment [2], the “HDAC6 selectivity (fold)” value came to 607 fold and the IC50 is 82.4 nM.
For `CC(C)N1CCc2ccc(-c3nn(Cc4ccc(-c5nnc(C(F)F)o5)cn4)c(=O)o3)cc2C1` [Compound 13, 3-[[5-[5-(difluoromethyl)-1,3,4-oxadiazol-2-yl]-2-pyridyl]methyl]-5-(2-isopropyl-3,4-dihydro-1H-isoquinolin-7-yl)-1,3,4-oxadiazol-2-one], the IC50 in experiment [1] was more than 50000 nM. In experiment [2], the “HDAC6 selectivity (fold)” value was 475 fold and the IC50 was determined as 105 nM.
With `O=c1oc(-c2ccc3c(c2)CN(C2CCC2)CC3)nn1Cc1ccc(-c2nnc(C(F)F)o2)cn1` [Compound 14, 5-(2-cyclobutyl-3,4-dihydro-1H-isoquinolin-7-yl)-3-[[5-[5-(difluoromethyl)-1,3,4-oxadiazol-2-yl]-2-pyridyl]methyl]-1,3,4-oxadiazol-2-one], the IC50 in experiment [1] was more than 50000 nM; in experiment [2] it was 105 nM. Further, the “HDAC6 selectivity (fold)” value in experiment [2] is reported as 478 fold.
Regarding `O=c1oc(-c2ccccc2F)nn1Cc1ccc(-c2nnc(C(F)F)o2)cn1` [Compound 15, 3-[[5-[5-(difluoromethyl)-1,3,4-oxadiazol-2-yl]-2-pyridyl]methyl]-5-(2-fluorophenyl)-1,3,4-oxadiazol-2-one], in experiment [1], the half-inhibitory concentration (IC50) is more than 50000 nM. Further, in experiment [2], the “HDAC6 selectivity (fold)” value came to 524 fold and the IC50 turned out to be 95.5 nM.
Taken in the same sequence, the figures for `O=c1oc(-c2ccsc2)nn1Cc1ccc(-c2nnc(C(F)F)o2)cn1` [Compound 16, 3-[[5-[5-(difluoromethyl)-1,3,4-oxadiazol-2-yl]-2-pyridyl]methyl]-5-(3-thienyl)-1,3,4-oxadiazol-2-one] were more than 50000 nM, 551 fold and 90.8 nM.
For `O=c1oc(-c2ccc3cccnc3c2)nn1Cc1ccc(-c2nnc(C(F)F)o2)cn1` [Compound 17, 3-[[5-[5-(difluoromethyl)-1,3,4-oxadiazol-2-yl]-2-pyridyl]methyl]-5-(7-quinolyl)-1,3,4-oxadiazol-2-one], in experiment [1], the IC50 was more than 50000 nM. In experiment [2], the “HDAC6 selectivity (fold)” value amounted to 1089 fold and the IC50 stood at 45.9 nM.
Turning to `O=c1oc(-c2ccc3scnc3c2)nn1Cc1ccc(-c2nnc(C(F)F)o2)cn1` [Compound 18, 5-(1,3-benzothiazol-5-yl)-3-[[5-[5-(difluoromethyl)-1,3,4-oxadiazol-2-yl]-2-pyridyl]methyl]-1,3,4-oxadiazol-2-one], the IC50 in experiment [1] is more than 50000 nM; in experiment [2], 65.1 nM. In addition, the “HDAC6 selectivity (fold)” value in experiment [2] was found to be 768 fold.
For the compound `Cn1ccc2cc(-c3nn(Cc4ccc(-c5nnc(C(F)F)o5)cn4)c(=O)o3)ccc21` [Compound 19], in experiment [1], the IC50 is more than 50000 nM. Moreover, in experiment [2], the “HDAC6 selectivity (fold)” value was determined as 1511 fold and the IC50 amounted to 33.1 nM.
As to `O=c1oc(-c2ccc(N3CCNCC3)cc2)nn1Cc1ccc(-c2nnc(C(F)F)o2)cn1` [Compound 20, 3-[[5-[5-(difluoromethyl)-1,3,4-oxadiazol-2-yl]-2-pyridyl]methyl]-5-(4-piperazin-1-ylphenyl)-1,3,4-oxadiazol-2-one], the IC50 in experiment [1] is more than 50000 nM. In addition, in experiment [2], the “HDAC6 selectivity (fold)” value came out at 653 fold and the IC50 was determined as 76.6 nM.
Taken in the same sequence, the figures for `CN1CCN(c2ccc(-c3nn(Cc4ccc(-c5nnc(C(F)F)o5)cn4)c(=O)o3)cc2)CC1` [Compound 21, 3-[[5-[5-(difluoromethyl)-1,3,4-oxadiazol-2-yl]-2-pyridyl]methyl]-5-[4-(4-methylpiperazin-1-yl)phenyl]-1,3,4-oxadiazol-2-one] were more than 50000 nM, 446 fold and 112 nM.
Taken in the same sequence, the figures for `CC(C)N1CCN(c2ccc(-c3nn(Cc4ccc(-c5nnc(C(F)F)o5)cn4)c(=O)o3)cc2)CC1` [Compound 22, 3-[[5-[5-(difluoromethyl)-1,3,4-oxadiazol-2-yl]-2-pyridyl]methyl]-5-[4-(4-isopropylpiperazin-1-yl)phenyl]-1,3,4-oxadiazol-2-one] were more than 50000 nM, 479 fold and 104 nM.
Regarding `O=c1oc(-c2ccc(N3CCNCC3)cc2F)nn1Cc1ccc(-c2nnc(C(F)F)o2)cn1` [Compound 23, 3-[[5-[5-(difluoromethyl)-1,3,4-oxadiazol-2-yl]-2-pyridyl]methyl]-5-(2-fluoro-4-piperazin-1-yl-phenyl)-1,3,4-oxadiazol-2-one], the IC50 in experiment [1] was more than 50000 nM. Further, in experiment [2], the “HDAC6 selectivity (fold)” value is on record as 942 fold and the IC50 is 53.1 nM.
Regarding `CN1CCN(c2ccc(-c3nn(Cc4ccc(-c5nnc(C(F)F)o5)cn4)c(=O)o3)c(F)c2)CC1` [Compound 24, 3-[[5-[5-(difluoromethyl)-1,3,4-oxadiazol-2-yl]-2-pyridyl]methyl]-5-[2-fluoro-4-(4-methylpiperazin-1-yl)phenyl]-1,3,4-oxadiazol-2-one], the IC50 in experiment [1] is more than 50000 nM. Further, in experiment [2], the “HDAC6 selectivity (fold)” value is on record as 487 fold and the IC50 is 103 nM.
As to `CC(C)N1CCN(c2ccc(-c3nn(Cc4ccc(-c5nnc(C(F)F)o5)cn4)c(=O)o3)c(F)c2)CC1` [Compound 25, 3-[[5-[5-(difluoromethyl)-1,3,4-oxadiazol-2-yl]-2-pyridyl]methyl]-5-[2-fluoro-4-(4-isopropylpiperazin-1-yl)phenyl]-1,3,4-oxadiazol-2-one], the IC50 in experiment [1] was more than 50000 nM; in experiment [2], 77.9 nM. The “HDAC6 selectivity (fold)” value in experiment [2] stood at 642 fold.
As for `O=c1oc(-c2cccc(C3CCN(C4COC4)CC3)c2F)nn1Cc1ccc(-c2nnc(C(F)F)o2)cn1` [Compound 26, 3-[[5-[5-(difluoromethyl)-1,3,4-oxadiazol-2-yl]-2-pyridyl]methyl]-5-[2-fluoro-3-[1-(oxetan-3-yl)-4-piperidyl]phenyl]-1,3,4-oxadiazol-2-one], the IC50 in experiment [1] was more than 50000 nM. In addition, in experiment [2], the “HDAC6 selectivity (fold)” value amounted to 503 fold and the IC50 is 99.4 nM.
`CN1CC(N2CCC(c3cccc(-c4nn(Cc5ccc(-c6nnc(C(F)F)o6)cn5)c(=O)o4)c3F)CC2)C1` [Compound 27, 3-[[5-[5-(difluoromethyl)-1,3,4-oxadiazol-2-yl]-2-pyridyl]methyl]-5-[2-fluoro-3-[1-(1-methylazetidin-3-yl)-4-piperidyl]phenyl]-1,3,4-oxadiazol-2-one]: the IC50 in experiment [1] is more than 50000 nM. In addition, in experiment [2], the “HDAC6 selectivity (fold)” value was 420 fold and the IC50 turned out to be 119 nM.
